pIC50: −log10 of the molar value. Like-named read-outs stand apart in the source and are kept apart here.
Key:
Format in all cases: cell-based
[1] = target: AXL (phospho-AXL, Gas6-stimulated A-172 glioblastoma cells) (Homo sapiens (Human), UniProt P30530); assay: AXL autophosphorylation ELISA in A-172 cells (Example E); details: cellular activity, read-out: Axl IC50
Outline: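 Phospho-AXL in lysates was quantified by ELISA, normalised to DMSO (100%) and reference inhibitor (0%) controls. IC50 by 4-parameter logistic fit.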

[2] = target: Mer (phospho-Mer, MERTK-transfected 293A cells) (Homo sapiens (Human), UniProt Q12866); assay: Mer autophosphorylation ELISA in transient transfected 293A cells (Example H); details: cellular activity
Outline: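 Human MERTK transiently transfected into 293A cells; compounds as 8-point dose curve in serum-free medium (0.3% DMSO final), 1 h. Lysates assayed by phospho-Mer sandwich ELISA against phospho-Mer standard; DMSO = 100%, reference inhibitor = 0% activity; IC50 from 4-parameter logistic fit.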

[3] = target: KDR (phospho-KDR, VEGF165-stimulated HUVEC cells) (Homo sapiens (Human), UniProt P35968); assay: KDR autophosphorylation ELISA in HUVEC cells (Example G); details: cellular activity
Outline: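 IC50 values derive from nonlinear curve fitting of phospho-KDR levels measured by ELISA and interpolated from a phosphoprotein standard. Beforehand, starved HUVECs received compound (0.3% DMSO vehicle) for one hour and were activated with VEGF165 at 100 ng/mL for 5 min.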

[4] = target: Met (phospho-Met, HGF-stimulated PC-3 prostate cancer cells) (Homo sapiens (Human), UniProt P08581); assay: Met autophosphorylation ELISA in PC-3 cells (Example F); details: cellular activity, read-out: c-Met IC50
Outline: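 Sandwich ELISA for phospho-Met (panTyr) in PC-3 lysates. Cells starved 3 h serum-free, compound 1 h (8-pt curve, 0.3% DMSO), HGF 100 ng/mL 10 min. 100% = HGF + DMSO; 0% = HGF + reference inhibitor. IC50 by 4-parameter fit.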

[5] = AXL autophosphorylation ELISA in A-172 cells
[6] = Mer autophosphorylation ELISA in transient transfected 293A cells
[7] = KDR autophosphorylation ELISA in HUVEC cells
[8] = Met autophosphorylation ELISA in PC-3 cells

Mer (phospho-Mer, MERTK-transfected 293A cells), sequence (Q12866 21-999): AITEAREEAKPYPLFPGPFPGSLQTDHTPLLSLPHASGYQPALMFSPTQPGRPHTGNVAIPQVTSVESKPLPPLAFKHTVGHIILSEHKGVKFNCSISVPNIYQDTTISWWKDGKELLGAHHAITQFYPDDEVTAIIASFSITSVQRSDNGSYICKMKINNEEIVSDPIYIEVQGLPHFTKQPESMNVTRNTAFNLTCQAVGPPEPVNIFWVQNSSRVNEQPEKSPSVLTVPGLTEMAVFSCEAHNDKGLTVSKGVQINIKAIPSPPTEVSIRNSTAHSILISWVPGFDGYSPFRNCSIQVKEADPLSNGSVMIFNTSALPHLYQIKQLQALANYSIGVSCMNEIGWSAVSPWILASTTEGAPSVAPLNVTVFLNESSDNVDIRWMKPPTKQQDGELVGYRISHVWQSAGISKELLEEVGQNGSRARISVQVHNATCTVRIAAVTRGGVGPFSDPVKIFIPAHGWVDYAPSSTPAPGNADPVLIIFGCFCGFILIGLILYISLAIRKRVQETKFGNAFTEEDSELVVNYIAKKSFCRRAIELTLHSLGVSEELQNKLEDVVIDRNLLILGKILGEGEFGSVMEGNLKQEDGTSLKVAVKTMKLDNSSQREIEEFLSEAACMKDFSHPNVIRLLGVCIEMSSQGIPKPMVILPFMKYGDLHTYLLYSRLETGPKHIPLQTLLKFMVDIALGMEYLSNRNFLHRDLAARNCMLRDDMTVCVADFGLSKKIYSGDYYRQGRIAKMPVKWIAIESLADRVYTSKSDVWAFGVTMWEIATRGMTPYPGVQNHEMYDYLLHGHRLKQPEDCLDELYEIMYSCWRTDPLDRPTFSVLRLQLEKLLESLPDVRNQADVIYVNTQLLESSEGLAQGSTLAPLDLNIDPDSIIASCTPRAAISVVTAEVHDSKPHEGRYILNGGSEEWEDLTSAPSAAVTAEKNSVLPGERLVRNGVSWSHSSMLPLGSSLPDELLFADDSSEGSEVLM
AXL (phospho-AXL, Gas6-stimulated A-172 glioblastoma cells), sequence (P30530 26-894): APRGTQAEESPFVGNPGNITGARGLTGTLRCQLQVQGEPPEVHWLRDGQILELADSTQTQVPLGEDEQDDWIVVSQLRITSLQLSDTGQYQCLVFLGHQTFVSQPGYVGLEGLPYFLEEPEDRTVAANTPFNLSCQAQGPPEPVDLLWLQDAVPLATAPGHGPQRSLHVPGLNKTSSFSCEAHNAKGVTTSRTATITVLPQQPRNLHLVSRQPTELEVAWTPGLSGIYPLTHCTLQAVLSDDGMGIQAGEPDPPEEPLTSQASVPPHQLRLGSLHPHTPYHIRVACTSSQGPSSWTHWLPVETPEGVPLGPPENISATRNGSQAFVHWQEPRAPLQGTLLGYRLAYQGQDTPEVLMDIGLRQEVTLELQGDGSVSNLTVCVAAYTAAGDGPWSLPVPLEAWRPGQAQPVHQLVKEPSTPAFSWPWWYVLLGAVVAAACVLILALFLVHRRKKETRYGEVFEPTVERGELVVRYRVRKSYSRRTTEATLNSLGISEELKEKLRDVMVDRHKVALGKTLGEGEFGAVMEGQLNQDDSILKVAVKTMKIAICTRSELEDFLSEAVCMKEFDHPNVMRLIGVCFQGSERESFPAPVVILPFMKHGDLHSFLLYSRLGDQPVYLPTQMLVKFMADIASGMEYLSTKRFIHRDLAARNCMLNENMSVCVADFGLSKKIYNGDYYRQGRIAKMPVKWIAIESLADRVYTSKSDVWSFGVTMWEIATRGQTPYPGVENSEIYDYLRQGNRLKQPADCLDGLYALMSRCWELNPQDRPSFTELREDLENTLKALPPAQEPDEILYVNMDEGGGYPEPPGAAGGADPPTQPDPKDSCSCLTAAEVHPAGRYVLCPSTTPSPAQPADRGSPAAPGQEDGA
KDR (phospho-KDR, VEGF165-stimulated HUVEC cells), sequence (P35968 20-1356): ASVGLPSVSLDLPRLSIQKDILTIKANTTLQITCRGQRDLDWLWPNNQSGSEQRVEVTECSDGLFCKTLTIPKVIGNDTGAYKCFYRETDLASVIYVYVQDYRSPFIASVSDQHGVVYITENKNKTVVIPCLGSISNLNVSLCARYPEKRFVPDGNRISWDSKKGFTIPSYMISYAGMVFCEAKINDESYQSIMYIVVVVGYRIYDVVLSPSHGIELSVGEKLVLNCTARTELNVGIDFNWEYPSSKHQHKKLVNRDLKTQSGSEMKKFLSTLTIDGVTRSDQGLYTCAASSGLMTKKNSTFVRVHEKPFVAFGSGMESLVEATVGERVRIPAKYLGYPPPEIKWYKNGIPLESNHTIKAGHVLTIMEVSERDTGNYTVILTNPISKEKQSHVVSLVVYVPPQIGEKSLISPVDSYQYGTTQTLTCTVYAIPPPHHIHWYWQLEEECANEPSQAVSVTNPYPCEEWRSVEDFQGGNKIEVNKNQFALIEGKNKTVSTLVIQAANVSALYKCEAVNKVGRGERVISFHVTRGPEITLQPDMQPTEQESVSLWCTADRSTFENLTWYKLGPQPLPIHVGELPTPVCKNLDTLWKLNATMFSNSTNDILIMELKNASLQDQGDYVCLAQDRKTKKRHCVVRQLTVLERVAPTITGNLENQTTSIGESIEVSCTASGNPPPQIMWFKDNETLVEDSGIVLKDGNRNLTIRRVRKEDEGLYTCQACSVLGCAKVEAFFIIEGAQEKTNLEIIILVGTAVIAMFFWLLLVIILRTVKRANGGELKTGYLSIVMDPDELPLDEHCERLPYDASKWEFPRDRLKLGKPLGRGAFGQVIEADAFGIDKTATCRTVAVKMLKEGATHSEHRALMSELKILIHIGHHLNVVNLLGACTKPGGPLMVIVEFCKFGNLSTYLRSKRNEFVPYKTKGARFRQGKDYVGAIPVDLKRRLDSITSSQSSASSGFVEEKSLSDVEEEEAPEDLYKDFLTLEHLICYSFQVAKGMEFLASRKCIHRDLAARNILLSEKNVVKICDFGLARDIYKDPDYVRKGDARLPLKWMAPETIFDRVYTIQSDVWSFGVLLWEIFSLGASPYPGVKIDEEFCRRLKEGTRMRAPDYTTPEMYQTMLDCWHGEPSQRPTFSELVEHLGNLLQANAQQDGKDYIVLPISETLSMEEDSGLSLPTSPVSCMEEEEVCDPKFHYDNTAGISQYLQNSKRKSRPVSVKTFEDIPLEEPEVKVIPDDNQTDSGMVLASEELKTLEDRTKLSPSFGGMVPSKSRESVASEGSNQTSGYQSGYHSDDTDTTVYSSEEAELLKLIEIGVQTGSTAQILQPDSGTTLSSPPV
Met (phospho-Met, HGF-stimulated PC-3 prostate cancer cells), sequence (P08581 25-1390): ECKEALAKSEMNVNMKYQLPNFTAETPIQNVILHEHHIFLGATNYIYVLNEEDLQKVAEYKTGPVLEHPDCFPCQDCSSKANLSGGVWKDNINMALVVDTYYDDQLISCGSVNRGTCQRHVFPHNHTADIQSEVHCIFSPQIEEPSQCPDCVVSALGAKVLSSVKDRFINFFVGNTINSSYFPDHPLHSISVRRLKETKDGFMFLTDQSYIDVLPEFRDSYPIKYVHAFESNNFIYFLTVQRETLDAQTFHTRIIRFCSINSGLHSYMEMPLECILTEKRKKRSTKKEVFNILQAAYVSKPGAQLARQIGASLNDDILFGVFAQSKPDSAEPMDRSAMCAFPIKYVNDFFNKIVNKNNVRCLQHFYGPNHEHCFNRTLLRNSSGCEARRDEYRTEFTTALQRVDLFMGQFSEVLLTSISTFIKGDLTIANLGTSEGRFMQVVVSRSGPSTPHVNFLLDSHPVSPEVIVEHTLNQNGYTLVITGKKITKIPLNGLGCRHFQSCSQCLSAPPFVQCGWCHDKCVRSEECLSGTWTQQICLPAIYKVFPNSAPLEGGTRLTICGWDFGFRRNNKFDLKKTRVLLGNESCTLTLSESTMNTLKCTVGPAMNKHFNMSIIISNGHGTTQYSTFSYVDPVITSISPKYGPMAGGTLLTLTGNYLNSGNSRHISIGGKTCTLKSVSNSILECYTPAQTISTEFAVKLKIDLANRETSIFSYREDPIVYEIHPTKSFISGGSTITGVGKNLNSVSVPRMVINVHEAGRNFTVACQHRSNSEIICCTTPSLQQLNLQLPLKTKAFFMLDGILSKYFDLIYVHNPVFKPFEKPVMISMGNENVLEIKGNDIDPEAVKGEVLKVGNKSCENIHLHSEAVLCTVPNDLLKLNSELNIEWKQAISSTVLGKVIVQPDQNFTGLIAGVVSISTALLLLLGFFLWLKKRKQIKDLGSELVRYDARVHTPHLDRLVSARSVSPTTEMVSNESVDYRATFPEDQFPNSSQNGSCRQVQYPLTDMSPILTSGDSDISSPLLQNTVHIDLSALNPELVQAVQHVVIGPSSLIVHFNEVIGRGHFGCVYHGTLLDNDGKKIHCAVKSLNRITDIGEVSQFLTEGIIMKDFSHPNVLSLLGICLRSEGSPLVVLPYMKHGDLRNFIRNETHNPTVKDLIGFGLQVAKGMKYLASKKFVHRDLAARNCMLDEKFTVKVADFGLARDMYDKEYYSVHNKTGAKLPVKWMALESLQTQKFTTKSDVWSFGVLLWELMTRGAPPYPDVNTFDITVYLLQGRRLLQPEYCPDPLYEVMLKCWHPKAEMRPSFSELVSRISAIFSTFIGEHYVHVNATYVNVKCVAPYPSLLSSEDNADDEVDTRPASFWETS

Structure (SMILES) | pIC50 [1, 5] | pIC50 [2, 6] | pIC50 [3, 7] | pIC50 [4, 8] | pIC50 ([1]; A-172 cells) | pIC50 ([2]; transfected 293A cells) | pIC50 ([3]; HUVEC cells) | pIC50 ([4]; PC-3 cells)
COc1cc2nccc(Oc3ccc(NC(=O)c4cn5c(c(-c6ccc(F)cc6)c4=O)CCCC5)cc3F)c2nc1OC [Compound 363, N-[4-[(6,7-dimethoxy-1,5-naphthyridin-4-yl)oxy]-3-fluorophenyl]-1-(4-fluorophenyl)-2-oxo-6,7,8,9-tetrahydroquinolizine-3-carboxamide] | > 7.00 | > 7.00 | > 7.00 | > 7.00 | – | – | – | –
COc1cc2nccc(Oc3ccc(NC(=O)c4nnc(C)c(-c5ccc(F)cc5)c4OC(C)C)cc3F)c2cc1OC [Compound 574, N-[4-(6,7-Dimethoxyquinolin-4-yl)oxy-3-fluorophenyl]-5-(4-fluorophenyl)-6-methyl-4-propan-2-yloxypyridazine-3-carboxamide] | > 7.00 | > 7.00 | > 7.00 | > 7.00 | – | – | – | –
COc1cnc2c(Oc3ccc(NC(=O)c4c(C)c(Br)c(C)n(-c5ccc(F)cc5)c4=O)cc3F)ccnc2c1 [Compound 314, 5-Bromo-N-[3-fluoro-4-[(7-methoxy-1,5-naphthyridin-4-yl)oxy]phenyl]-1-(4-fluorophenyl)-4,6-dimethyl-2-oxopyridine-3-carboxamide] | > 7.00 | > 7.00 | > 7.00 | > 7.00 | – | – | – | –
CCOc1nc2c(Oc3ccc(NC(=O)c4c(COC)nc(C)c(-c5ccc(F)cc5)c4O)cc3)ccnc2cc1OC [Compound 672, N-[4-[(6-ethoxy-7-methoxy-1,5-naphthyridin-4-yl)oxy]phenyl]-5-(4-fluorophenyl)-4-hydroxy-2-(methoxymethyl)-6-methylpyridine-3-carboxamide] | > 7.00 | > 7.00 | > 7.00 | > 7.00 | – | – | – | –
CCOc1nc2c(Oc3ccc(NC(=O)c4c(C)ncc(-c5ccc(F)cc5)c4O)cc3F)ccnc2cc1OC [Compound 675, N-[4-[(6-ethoxy-7-methoxy-1,5-naphthyridin-4-yl)oxy]-3-fluorophenyl]-5-(4-fluorophenyl)-4-hydroxy-2-methylpyridine-3-carboxamide] | > 7.00 | > 7.00 | > 7.00 | > 7.00 | – | – | – | –
COc1cc2nccc(Oc3ccc(NC(=O)c4c(C)n(CCF)cc(-c5ccc(F)c(F)c5)c4=O)cc3F)c2nc1OC [Compound 815, 5-(3,4-difluorophenyl)-N-[4-[(6,7-dimethoxy-1,5-naphthyridin-4-yl)oxy]-3-fluorophenyl]-1-(2-fluoroethyl)-2-methyl-4-oxopyridine-3-carboxamide] | – | – | – | – | > 7.00 | > 7.00 | 6.52 to 7.00 | > 7.00
COc1nc2c(Oc3ccc(NC(=O)c4c(C)nc(C)c(-c5ccc(F)cc5C)c4O)cc3F)ccnc2cc1C [Compound 471, N-[3-fluoro-4-[(6-methoxy-7-methyl-1,5-naphthyridin-4-yl)oxy]phenyl]-5-(4-fluoro-2-methylphenyl)-4-hydroxy-2,6-dimethylpyridine-3-carboxamide] | > 7.00 | > 7.00 | > 7.00 | > 7.00 | – | – | – | –
COc1cc2nccc(Oc3ccc(NC(=O)c4cn5c(c(-c6ccc(F)cc6)c4=O)COCC5)cc3F)c2nc1OC [Compound 564, N-[4-[(6,7-Dimethoxy-1,5-naphthyridin-4-yl)oxy]-3-fluorophenyl]-9-(4-fluorophenyl)-8-oxo-3,4-dihydro-1H-pyrido[2,1-c][1,4]oxazine-7-carboxamide] | > 7.00 | > 7.00 | 6.52 to 7.00 | > 7.00 | – | – | – | –
COc1nc2c(Oc3ccc(NC(=O)c4c(C)nc(C)n(-c5ccc(F)cc5)c4=O)cc3F)ccnc2cc1C [Compound 468, N-[3-fluoro-4-[(6-methoxy-7-methyl-1,5-naphthyridin-4-yl)oxy]phenyl]-1-(4-fluorophenyl)-2,4-dimethyl-6-oxopyrimidine-5-carboxamide] | > 7.00 | > 7.00 | > 7.00 | > 7.00 | – | – | – | –
COCc1nc(C)c(-c2ccc(F)cc2)c(O)c1C(=O)Nc1ccc(Oc2ccnc3cc(C)c(OC)nc23)c(F)c1 [Compound 469, N-[3-fluoro-4-[(6-methoxy-7-methyl-1,5-naphthyridin-4-yl)oxy]phenyl]-5-(4-fluorophenyl)-4-hydroxy-2-(methoxymethyl)-6-methylpyridine-3-carboxamide] | > 7.00 | > 7.00 | > 7.00 | > 7.00 | – | – | – | –
COCc1cnn(-c2ccc(F)cc2)c(=O)c1C(=O)Nc1ccc(Oc2ccnc3cc(OC)cnc23)c(F)c1 [Compound 532, N-[3-fluoro-4-[(7-methoxy-1,5-naphthyridin-4-yl)oxy]phenyl]-2-(4-fluorophenyl)-5-(methoxymethyl)-3-oxopyridazine-4-carboxamide] | > 7.00 | > 7.00 | < 6.52 | > 7.00 | – | – | – | –
COCc1cnn(-c2ccc(F)cc2)c(=O)c1C(=O)Nc1ccc(Oc2ccnc3cc(OC)c(OC)nc23)c(F)c1 [Compound 533, N-[4-[(6,7-dimethoxy-1,5-naphthyridin-4-yl)oxy]-3-fluorophenyl]-2-(4-fluorophenyl)-5-(methoxymethyl)-3-oxopyridazine-4-carboxamide] | > 7.00 | > 7.00 | > 7.00 | > 7.00 | – | – | – | –
COc1cc2nccc(Oc3ccc(NC(=O)c4c(C)ccn(-c5ccc(F)cc5C)c4=O)cc3F)c2nc1OC [Compound 311, N-[4-[(6,7-Dimethoxy-1,5-naphthyridin-4-yl)oxy]-3-fluorophenyl]-1-(4-fluoro-2-methylphenyl)-4-methyl-2-oxopyridine-3-carboxamide] | > 7.00 | > 7.00 | > 7.00 | > 7.00 | – | – | – | –
COc1cc2nccc(Oc3ccc(NC(=O)c4c(C)ncc(Br)c4O)cc3F)c2nc1OC [Compound 490, 5-bromo-N-[4-[(6,7-dimethoxy-1,5-naphthyridin-4-yl)oxy]-3-fluorophenyl]-4-hydroxy-2-methylpyridine-3-carboxamide] | 6.52 to 7.00 | > 7.00 | > 7.00 | > 7.00 | – | – | – | –
COc1cnc2c(Oc3cc(F)c(NC(=O)c4c(C)nc(C)c(-c5ccc(F)cc5C)c4O)cc3F)ccnc2c1 [Compound 751, N-[2,5-difluoro-4-[(7-methoxy-1,5-naphthyridin-4-yl)oxy]phenyl]-5-(4-fluoro-2-methylphenyl)-4-hydroxy-2,6-dimethylpyridine-3-carboxamide] | > 7.00 | > 7.00 | > 7.00 | > 7.00 | – | – | – | –
COc1cc(NC(=O)c2cn(C)c(C)c(-c3ccc(F)cc3)c2=O)c(F)cc1Oc1ccnc2cc(OC)c(OC)nc12 [Compound 745, N-[4-[(6,7-dimethoxy-1,5-naphthyridin-4-yl)oxy]-2-fluoro-5-methoxyphenyl]-5-(4-fluorophenyl)-1,6-dimethyl-4-oxopyridine-3-carboxamide] | > 7.00 | > 7.00 | < 6.52 | > 7.00 | – | – | – | –
COc1cnc2c(Oc3ccc(NC(=O)c4c(C)c(Br)c(C)n(-c5ccc(F)cc5)c4=O)cc3)ccnc2c1 [Compound 312, 5-Bromo-1-(4-fluorophenyl)-N-[4-[(7-methoxy-1,5-naphthyridin-4-yl)oxy]phenyl]-4,6-dimethyl-2-oxopyridine-3-carboxamide] | > 7.00 | > 7.00 | 6.52 to 7.00 | > 7.00 | – | – | – | –
C=Cc1c(C)c(C(=O)Nc2ccc(Oc3ccnc4cc(OCCOC)cnc34)c(F)c2)c(=O)n(-c2ccc(F)cc2)c1C [Compound 742, 5-ethenyl-N-[3-fluoro-4-[[7-(2-methoxyethoxy)-1,5-naphthyridin-4-yl]oxy]phenyl]-1-(4-fluorophenyl)-4,6-dimethyl-2-oxopyridine-3-carboxamide] | > 7.00 | > 7.00 | < 6.52 | > 7.00 | – | – | – | –
COc1cc2nccc(Oc3ccc(NC(=O)c4nnc(C)c(-c5ccc(F)cc5)c4OC)cc3)c2nc1OC [Compound 534, N-[4-[(6,7-dimethoxy-1,5-naphthyridin-4-yl)oxy]phenyl]-5-(4-fluorophenyl)-4-methoxy-6-methylpyridazine-3-carboxamide] | > 7.00 | > 7.00 | > 7.00 | > 7.00 | – | – | – | –
C=C(C)c1cnc2c(Oc3ccc(NC(=O)c4nnc(C)c(-c5ccc(F)cc5)c4OCC)cc3F)ccnc2c1 [Compound 476, 4-ethoxy-5-(4-fluorophenyl)-N-[3-fluoro-4-[(7-prop-1-en-2-yl-1,5-naphthyridin-4-yl)oxy]phenyl]-6-methylpyridazine-3-carboxamide] | > 7.00 | > 7.00 | > 7.00 | > 7.00 | – | – | – | –
